Data from BindingDB's records for doi:10.7270/Q27P8WVP (Nmmlsc, 2010).

Target: Regulator of G-protein signaling 4 (Homo sapiens, UniProt P49798)
Test: RGS4-Galphao binding modulators, SAR follow-up, biochemical, multiplexed bead flow cytometry, SAR compounds (AID 2295)

Chain of Regulator of G-protein signaling 4 (P49798 whole entry): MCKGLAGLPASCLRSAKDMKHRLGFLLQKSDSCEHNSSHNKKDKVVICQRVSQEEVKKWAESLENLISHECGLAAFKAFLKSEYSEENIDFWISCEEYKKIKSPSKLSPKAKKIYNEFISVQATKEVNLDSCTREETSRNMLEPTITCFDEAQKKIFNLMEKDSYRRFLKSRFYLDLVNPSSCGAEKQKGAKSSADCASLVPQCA

NS(=O)(=O)c1ccc(N=NCc2ccc(O)c(O)c2O)c([N+](=O)[O-])c1 [4-[[(E)-(2,3-dihydroxy-4-oxo-1-cyclohexa-2,5-dienylidene)methyl]hydrazo]-3-nitrobenzenesulfonamide]
Ki: 1.02 µM
